US11964990B2, “1,3,4,7-tetrahydro-2H-pyrrolo[3′,2′:5,6]pyrido[2,3-b][1,4]oxazepine bcl-2 inhibitors” (AbbVie Inc., priority 2022, dated 2024)
Several values for one entry are separate records, joined by “and”; a condition that tells them apart may be missing. Equal values may be shown once. Read-outs that look alike come from different tables or passages of the source. Blank lines part the entries; values can stand above or below the compound they belong to.

Assays:
[1] = tested on: RS4;11 cells; assay: Cell viability assay (CellTiter-Glo) in RS4;11 cell line; assay type: cell-based; conditions: 24 hours, 10% Human Serum, 50% decrease in cell viability
How it was run: (§1)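 RS4;11 or Molt-4 cells (3000 per well) in RPMI 1640 with 10% human serum treated with compound for 24 h, 5% CO2. Viability measured by CellTiter-Glo as percent of control; EC50 from sigmoidal dose-response curves.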

[2] = tested on: Molt-4 cells; assay: Cell viability counter screen assay (CellTiter-Glo) in Molt-4 cells; assay type: cell-based; conditions: 24 hours, 10% Human Serum, 50% decrease in cell viability
How it was run: as §1

[3] = Bioavailability study: pharmacokinetics after single intravenous or oral dose in mouse; assay type: in vivo; conditions: for Vd: read-out: VSS
Experimental: Studies were conducted to evaluate the pharmacokinetic profiles of Example 25 herein and Example 2 in WO 2019/040550 after single intravenous or oral dose in mouse. CD-1 mice (male) were obtained from Charles River Laboratories (Wilmington, MA).
The pharmacokinetics of Example 25 herein and Example 2 in WO 2019/040550 were evaluated following single 1 mg/kg intravenous or oral doses in mouse. Example 25 herein and Example 2 in WO 2019/040550 were prepared as a solution in DMSO: Tween 80: PEG-400: Dextrose 5% in Water (5:5:20:70, v/v) for the IV and oral dose mouse studies. The intravenous dose was administered as a slow bolus to the penile vein under isoflurane anesthesia. The oral doses were administrated by gavage. Serial blood samples were obtained […], 0.25, 0.5, 1.0, 4, 6, 9, 12, 24, 32 and 48 hours post dosing and […]. Plasma was separated by centrifugation and stored frozen (<−15° C.) until analysis.
HPLC-MS/MS bioanalytical methods were utilized for the quantitation of Example 25 herein and Example 2 in WO 2019/040550 concentration in plasma. The analytical methods used protein precipitation to extract compound from plasma. All samples were combined with a minimum two volume equivalents of organic solvent containing internal standard, vortexed and then centrifuged to pellet the proteins. Supernatants were used for subsequent analysis by liquid chromatography-tandem mass spectrometry (LC-MS/MS). Studies involving quantitative analysis employed spiked standards in plasma that were processed simultaneously with the samples.
Analytes were separated using reverse phase chromatography on a C8 or C18 column prior to analysis on an API5500™ (or higher) mass spectrometer with a Turbo-Ion Spray source. Peak areas were determined using Sciex Analyst™ 1.6 (or higher) software or Sound Analytics DiscoveryQuant™ 2.0 (or higher) software. Actual concentrations (when required) were calculated by regression analysis of the peak area ratio (parent/internal standard) of the spiked standards versus concentrations.
Peak plasma concentrations (Cm) and the time to peak plasma concentration (Tmax) were determined directly from the plasma concentration data for each animal. The compound plasma concentration data were submitted to multi-exponential curve fitting using WinNonlin software. The area under the plasma concentration-time curve from 0 to t hours after dosing (AUC0-t, t=time of the last measurable plasma concentration) was calculated using the linear trapezoidal rule. The residual area extrapolated to infinity, determined as the final measured plasma concentration (Ct) divided by the terminal plasma elimination rate constant (β), was added to the AUC0-t to produce the total area under the curve (AUC0-∞). The apparent total plasma clearance (CLp) was calculated by dividing the administered dose by the AUC0-∞. Half-life (t1/2) was determined with the following calculation: t1/2=ln (2)/elimination rate constant. The initial volume of distribution (Vc) was calculated as the dose divided by the extrapolated concentration at time=0 (C0). The volume of distribution at steady state, Vss, was estimated as a product of the total plasma clearance (CLp) and the mean residence time (MRT); the terminal-phase volume of distribution, Vβ, was derived from the total plasma clearance value (CLp) divided by the terminal plasma elimination rate constant (β). Oral bioavailability (F) was calculated as the dose-normalized AUC0-∞ (AUC0-∞/D) from the oral dose divided by the corresponding dose normalized AUC0-∞ from intravenous dosing.

[4] = male, CD-1, mouse, plasma, iv, 1 mg/kg, IV 1 mg/kg, individual animal
[5] = male, CD-1, mouse, plasma, iv, 1 mg/kg, IV 1 mg/kg, mean
[6] = male, CD-1, mouse, plasma, po, 1 mg/kg, PO 1 mg/kg, individual animal
[7] = male, CD-1, mouse, plasma, po, 1 mg/kg, PO 1 mg/kg, mean

EC50 [1]: 1.79 nM
Vβ ([3]; IV 1 mg/kg, plasma, individual animal): 0.95 L/kg and 1.0 L/kg and 0.90 L/kg
Vβ ([3]; IV 1 mg/kg, plasma, mean): 0.96 L/kg
Tmax ([3]; male, CD-1, PO 1 mg/kg, plasma, individual animal): 4 h
AUC [3, 4]: 15800 ng·h/mL
C0 [3, 4]: 4010 ng/mL
MRT [3, 4]: 12 h
half-life [3, 4]: 10 h
AUC [3, 5]: 13300 ng·h/mL
C0 [3, 5]: 4160 ng/mL
MRT [3, 5]: 11 h
clearance ([3]; male, CD-1, mouse, plasma, iv, 1 mg/kg, IV 1 mg/kg, plasma, individual animal, read-out: CLP (converted)): 1.05 mL/min/kg
Vd ([3]; male, CD-1, mouse, plasma, iv, 1 mg/kg, IV 1 mg/kg, plasma, individual animal): 0.78 L/kg
Vd ([3]; male, CD-1, mouse, plasma, iv, 1 mg/kg, IV 1 mg/kg, plasma, mean): 0.82 L/kg
AUC [3, 6]: 3580 ng·h/mL
Cmax [3, 6]: 210 ng/mL
half-life [3, 6]: 7.5 h
AUC [3, 7]: 4130 ng·h/mL
Cmax [3, 7]: 254 ng/mL
bioavailability ([3]; male, CD-1, plasma, PO 1 mg/kg vs IV 1 mg/kg, mean, read-out: F (oral bioavailability)): 31%
Compound: CO[C@@H]1CC[C@@H](CNc2ccc(S(=O)(=O)NC(=O)c3ccc(N4CCN5CC6=C(c7ccc(Cl)cc7)CC(C)(C)C[C@H]6OCCCOC[C@@H]5C4)cc3N3CCCOc4nc5[nH]ccc5cc43)cc2[N+](=O)[O-])OC1 [Example 25, 4-((4aS,10aR)-14-(4-chlorophenyl)-12,12-dimethyl-1,2,4a,5,8,9,10a,11,13,15-decahydro-7H,12H-benzo[f]pyrazino[2,1-c][1,8]dioxa[4]azacycloundecin-3(4H)-yl)-2-(3,4-dihydro-2H-pyrrolo[3′,2′:5,6]pyrido[2,3-b][1,4]oxazepin-1(7H)-yl)-N-((4-((((2S,5R)-5-methoxytetrahydro-2H-pyran-2-yl)methyl)amino)-3-nitrophenyl)sulfonyl)benzamide]
EC50 [2]: 1280 nM

EC50 [1]: 1.47 nM
Compound: CC1(C)CC(c2ccc(Cl)cc2)=C2CN3CCN(c4ccc(C(=O)NS(=O)(=O)c5ccc(NC[C@H]6CC[C@@](C)(O)CC6)c([N+](=O)[O-])c5)c(N5CCCOc6nc7[nH]ccc7cc65)c4)C[C@H]3COCCCO[C@@H]2C1 [Example 36, 4-((4aS,10aR)-14-(4-chlorophenyl)-12,12-dimethyl-1,2,4a,5,8,9,10a,11,13,15-decahydro-7H,12H-benzo[f]pyrazino[2,1-c][1,8]dioxa[4]azacycloundecin-3(4H)-yl)-2-(3,4-dihydro-2H-pyrrolo[3′,2′:5,6]pyrido[2,3-b][1,4]oxazepin-1(7H)-yl)-N-((4-((((1s,4s)-4-hydroxy-4-methylcyclohexyl)methyl)amino)-3-nitrophenyl)sulfonyl)benzamide]
EC50 [2]: 117 nM

Compound: CC1(C)CC(c2ccc(Cl)cc2)=C2CN3CCN(c4ccc(C(=O)NS(=O)(=O)c5ccc(NC[C@H]6CC[C@H](N7CCOCC7)CO6)c([N+](=O)[O-])c5)c(N5CCCOc6nc7[nH]ccc7cc65)c4)C[C@H]3COCCCO[C@@H]2C1 [Example 37, 4-((4aS,10aR)-14-(4-chlorophenyl)-12,12-dimethyl-1,2,4a,5,8,9,10a,11,13,15-decahydro-7H,12H-benzo[f]pyrazino[2,1-c][1,8]dioxa[4]azacycloundecin-3(4H)-yl)-2-(3,4-dihydro-2H-pyrrolo[3′,2′:5,6]pyrido[2,3-b][1,4]oxazepin-1(7H)-yl)-N-((4-((((2R,5S)-5-morpholinotetrahydro-2H-pyran-2-yl)methyl)amino)-3-nitrophenyl)sulfonyl)benzamide]
EC50 [1]: 1.05 nM
EC50 [2]: 1450 nM

EC50 [1]: 1.66 nM
Compound: CC1(C)CC(c2ccc(Cl)cc2)=C2CN3CCN(c4ccc(C(=O)NS(=O)(=O)c5ccc(NCC6(F)CCN(C7COC7)CC6)c([N+](=O)[O-])c5)c(N5CCCOc6nc7[nH]ccc7cc65)c4)C[C@H]3COCCCO[C@@H]2C1 [Example 39, 4-((4aS,10aR)-14-(4-chlorophenyl)-12,12-dimethyl-1,2,4a,5,8,9,10a,11,13,15-decahydro-7H,12H-benzo[f]pyrazino[2,1-c][1,8]dioxa[4]azacycloundecin-3(4H)-yl)-2-(3,4-dihydro-2H-pyrrolo[3′,2′:5,6]pyrido[2,3-b][1,4]oxazepin-1(7H)-yl)-N-((4-(((4-fluoro-1-(oxetan-3-yl)piperidin-4-yl)methyl)amino)-3-nitrophenyl)sulfonyl)benzamide]
EC50 [2]: 453 nM

EC50 [1]: 24.5 nM
Compound: CO[C@H]1CC[C@H](COc2ccc(S(=O)(=O)NC(=O)c3ccc(N4CCN5CC6=C(c7ccc(Cl)cc7)CC(C)(C)C[C@H]6OCCCOC[C@@H]5C4)cc3N3CCCOc4nc5[nH]ccc5cc43)cc2Cl)OC1 [Example 40, N-((3-chloro-4-(((2R,5S)-5-methoxytetrahydro-2H-pyran-2-yl)methoxy)phenyl)sulfonyl)-4-((4aS,10aR)-14-(4-chlorophenyl)-12,12-dimethyl-1,2,4a,5,8,9,10a,11,13,15-decahydro-7H,12H-benzo[f]pyrazino[2,1-c][1,8]dioxa[4]azacycloundecin-3(4H)-yl)-2-(3,4-dihydro-2H-pyrrolo[3′,2′:5,6]pyrido[2,3-b][1,4]oxazepin-1(7H)-yl)benzamide]
EC50 [2]: > 10000 nM

EC50 [1]: 3.93 nM
Compound: CO[C@H]1C[C@H](CNc2ccc(S(=O)(=O)NC(=O)c3ccc(N4CCN5CC6=C(c7ccc(Cl)cc7)CC(C)(C)C[C@H]6OCCCOC[C@@H]5C4)cc3N3CCCOc4nc5[nH]ccc5cc43)cc2[N+](=O)[O-])C1 [Example 41, 4-((4aS,10aR)-14-(4-chlorophenyl)-12,12-dimethyl-1,2,4a,5,8,9,10a,11,13,15-decahydro-7H,12H-benzo[f]pyrazino[2,1-c][1,8]dioxa[4]azacycloundecin-3(4H)-yl)-2-(3,4-dihydro-2H-pyrrolo[3′,2′:5,6]pyrido[2,3-h][1,4]oxazepin-1(7H)-yl)-N-((4-((((1r,3r)-3-methoxycyclobutyl)methyl)amino)-3-nitrophenyl)sulfonyl)benzamide]
EC50 [2]: > 10000 nM

Compound: CC1(C)CC(c2ccc(Cl)cc2)=C2CN3CCN(c4ccc(C(=O)NS(=O)(=O)c5ccc(OCC6CCOCC6)c([N+](=O)[O-])c5)c(N5CCCOc6nc7[nH]ccc7cc65)c4)C[C@H]3COCCCO[C@@H]2C1 [Example 46, 4-((4aS,10aR)-14-(4-chlorophenyl)-12,12-dimethyl-1,2,4a,5,8,9,10a,11,13,15-decahydro-7H,12H-benzo[f]pyrazino[2,1-c][1,8]dioxa[4]azacycloundecin-3(4H)-yl)-2-(3,4-dihydro-2H-pyrrolo[3′,2′:5,6]pyrido[2,3-b][1,4]oxazepin-1(7H)-yl)-N-((3-nitro-4-((tetrahydro-2H-pyran-4-yl)methoxy)phenyl)sulfonyl)benzamide]
EC50 [1]: 9.36 nM
EC50 [2]: > 10000 nM

Compound: CC1(C)CC(c2ccc(Cl)cc2)=C2CN3CCN(c4ccc(C(=O)NS(=O)(=O)c5ccc(OC[C@H]6CC[C@@](C)(O)CC6)c([N+](=O)[O-])c5)c(N5CCCOc6nc7[nH]ccc7cc65)c4)C[C@H]3COCCCO[C@@H]2C1 [Example 49, 4-((4aS,10aR)-14-(4-chlorophenyl)-12,12-dimethyl-1,2,4a,5,8,9,10a,11,13,15-decahydro-7H,12H-benzo[f]pyrazino[2,1-c][1,8]dioxa[4]azacycloundecin-3(4H)-yl)-2-(3,4-dihydro-2H-pyrrolo[3′,2′:5,6]pyrido[2,3-b][1,4]oxazepin-1(7H)-yl)-N-((4-(((1s,4s)-4-hydroxy-4-methylcyclohexyl)methoxy)-3-nitrophenyl)sulfonyl)benzamide]
EC50 [1]: 25 nM
EC50 [2]: 36 nM
